Each block holds one compound with its values, some of them ahead of it.
Legend:
[1] = molecular target: T1, Protein kinase C iota type (Homo sapiens) (UniProt P41743); assay: Inhibition of PKC-iota (unknown origin) at 0.45 uM relative to control
T1 sequence (whole entry): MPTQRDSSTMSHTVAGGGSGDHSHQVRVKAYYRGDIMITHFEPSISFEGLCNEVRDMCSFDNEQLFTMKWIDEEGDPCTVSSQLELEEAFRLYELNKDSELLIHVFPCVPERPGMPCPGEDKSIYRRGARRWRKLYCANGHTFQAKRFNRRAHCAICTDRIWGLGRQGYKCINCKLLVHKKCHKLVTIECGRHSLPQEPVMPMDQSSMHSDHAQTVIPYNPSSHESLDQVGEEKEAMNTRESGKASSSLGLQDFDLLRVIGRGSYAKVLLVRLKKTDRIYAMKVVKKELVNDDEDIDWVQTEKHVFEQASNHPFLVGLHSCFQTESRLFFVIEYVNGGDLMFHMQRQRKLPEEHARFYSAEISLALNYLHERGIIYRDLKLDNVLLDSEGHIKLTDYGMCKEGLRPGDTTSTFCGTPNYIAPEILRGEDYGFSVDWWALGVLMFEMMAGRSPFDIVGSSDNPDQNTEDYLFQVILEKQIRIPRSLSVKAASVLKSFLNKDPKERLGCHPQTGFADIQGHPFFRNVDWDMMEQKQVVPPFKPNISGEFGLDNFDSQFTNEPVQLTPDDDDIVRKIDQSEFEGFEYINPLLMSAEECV

[2] = molecular target: Serine/threonine-protein kinase pim-2 (Homo sapiens) (UniProt Q9P1W9); assay: Inhibition of PIM2 (unknown origin) at 0.45 uM relative to control
[3] = molecular target: Leukocyte tyrosine kinase receptor (Homo sapiens) (UniProt P29376); assay: Inhibition of LTK (unknown origin) at 0.45 uM relative to control
[4] = test system: Tyrosine-protein kinase ABL1 (Homo sapiens), P00519 [Y253F]; assay: Inhibition of ABL1 Y253F mutant (unknown origin) at 0.164 uM relative to control
[5] = molecular target: Serine/threonine-protein kinase 10 (Homo sapiens) (UniProt O94804); assay: Inhibition of LOK (unknown origin) at 0.164 uM relative to control
[6] = molecular target: Macrophage-stimulating protein receptor (Homo sapiens) (UniProt Q04912); assay: Inhibition of MST1R (unknown origin) at 0.164 uM relative to control
[7] = molecular target: Ribosomal protein S6 kinase alpha-4 (Homo sapiens) (UniProt O75676); assay: Inhibition of MSK2 (unknown origin) at 0.164 uM relative to control
[8] = molecular target: Vascular endothelial growth factor receptor 3 (Homo sapiens) (UniProt P35916); assay: Inhibition of FLT4 (unknown origin) at 0.164 uM relative to control
[9] = molecular target: Tyrosine-protein kinase ITK/TSK (Homo sapiens) (UniProt Q08881); assay: Inhibition of ITK (unknown origin) at 0.164 uM relative to control
[10] = molecular target: Fibroblast growth factor receptor 1 (Homo sapiens) (UniProt P11362); assay: Inhibition of FGFR1 (unknown origin) at 0.19 uM relative to control
[11] = test system: Fibroblast growth factor receptor 1 (Homo sapiens), P11362 [V561M]; assay: Inhibition of FGFR1 V561M mutant (unknown origin) at 0.19 uM relative to control
[12] = molecular target: T2, Serine/threonine-protein kinase D1 (Homo sapiens) (UniProt Q15139); assay: Inhibition of PKD1 (unknown origin) at 0.19 uM relative to control
T2 sequence (whole entry): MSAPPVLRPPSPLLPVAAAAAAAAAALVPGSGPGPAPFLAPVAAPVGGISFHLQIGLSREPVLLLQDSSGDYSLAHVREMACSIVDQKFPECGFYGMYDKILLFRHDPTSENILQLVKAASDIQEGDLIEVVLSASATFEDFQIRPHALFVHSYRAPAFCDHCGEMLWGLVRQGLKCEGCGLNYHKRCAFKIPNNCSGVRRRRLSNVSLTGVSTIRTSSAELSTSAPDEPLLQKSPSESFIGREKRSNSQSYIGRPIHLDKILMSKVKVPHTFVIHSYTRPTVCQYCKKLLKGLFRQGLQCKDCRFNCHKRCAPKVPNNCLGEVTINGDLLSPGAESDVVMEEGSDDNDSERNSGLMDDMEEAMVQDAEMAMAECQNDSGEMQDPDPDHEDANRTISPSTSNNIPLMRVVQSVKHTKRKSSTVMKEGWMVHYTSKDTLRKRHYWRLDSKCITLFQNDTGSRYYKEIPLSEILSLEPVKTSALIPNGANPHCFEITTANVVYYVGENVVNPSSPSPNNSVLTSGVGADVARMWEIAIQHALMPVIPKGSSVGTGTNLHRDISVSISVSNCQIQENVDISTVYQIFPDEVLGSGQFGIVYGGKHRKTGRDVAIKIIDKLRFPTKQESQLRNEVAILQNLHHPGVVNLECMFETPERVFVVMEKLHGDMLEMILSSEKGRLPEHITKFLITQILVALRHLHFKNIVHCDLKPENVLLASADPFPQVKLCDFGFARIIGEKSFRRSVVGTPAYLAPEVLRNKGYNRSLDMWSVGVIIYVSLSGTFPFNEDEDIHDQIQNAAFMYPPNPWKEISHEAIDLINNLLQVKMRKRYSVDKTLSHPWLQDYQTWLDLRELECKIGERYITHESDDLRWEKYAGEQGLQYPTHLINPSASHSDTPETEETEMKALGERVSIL

[13] = molecular target: Phosphorylase b kinase gamma catalytic chain, skeletal muscle/heart isoform (Homo sapiens) (UniProt Q16816); assay: Inhibition of PhKg1 (unknown origin) at 0.19 uM relative to control
[14] = molecular target: Casein kinase I isoform gamma-1 (Homo sapiens) (UniProt Q9HCP0); assay: Inhibition of CK1-gamma1 (unknown origin) at 0.19 uM relative to control
[15] = molecular target: Receptor tyrosine-protein kinase erbB-4 (Homo sapiens) (UniProt Q15303); assay: Inhibition of HER4 (unknown origin) at 0.19 uM relative to control
[16] = molecular target: Cyclin-dependent kinase 2 (Homo sapiens) (UniProt P24941); assay: Inhibition of CDK2 (unknown origin) at 0.19 uM relative to control
[17] = molecular target: Calcium/calmodulin-dependent protein kinase type II subunit gamma (Homo sapiens) (UniProt Q13555); assay: Inhibition of CaMK2-gamma (unknown origin) at 0.19 uM relative to control

Sequence of Fibroblast growth factor receptor 1 (Homo sapiens) (P11362 22-822 limits assumed): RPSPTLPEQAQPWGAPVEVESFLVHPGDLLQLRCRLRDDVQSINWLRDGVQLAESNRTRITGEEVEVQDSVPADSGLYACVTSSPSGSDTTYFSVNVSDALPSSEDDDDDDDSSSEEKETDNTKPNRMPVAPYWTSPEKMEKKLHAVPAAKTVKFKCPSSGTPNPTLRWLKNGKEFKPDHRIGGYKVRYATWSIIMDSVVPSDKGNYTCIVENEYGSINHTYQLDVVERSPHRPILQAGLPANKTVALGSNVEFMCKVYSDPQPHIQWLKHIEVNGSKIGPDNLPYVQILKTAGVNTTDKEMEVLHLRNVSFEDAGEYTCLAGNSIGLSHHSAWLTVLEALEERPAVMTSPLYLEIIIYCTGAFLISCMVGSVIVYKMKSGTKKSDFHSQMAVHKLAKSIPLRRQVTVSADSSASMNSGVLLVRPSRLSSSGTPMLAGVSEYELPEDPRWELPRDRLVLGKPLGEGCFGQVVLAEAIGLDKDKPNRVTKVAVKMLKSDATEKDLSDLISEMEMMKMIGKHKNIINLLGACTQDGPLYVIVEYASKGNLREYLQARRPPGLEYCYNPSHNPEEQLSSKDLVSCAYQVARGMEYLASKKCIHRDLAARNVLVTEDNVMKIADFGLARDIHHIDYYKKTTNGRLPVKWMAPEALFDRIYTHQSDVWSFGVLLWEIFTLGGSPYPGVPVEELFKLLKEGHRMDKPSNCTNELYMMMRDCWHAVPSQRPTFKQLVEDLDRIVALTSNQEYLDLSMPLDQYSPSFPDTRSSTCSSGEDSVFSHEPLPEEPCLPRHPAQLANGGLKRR
Sequence of Leukocyte tyrosine kinase receptor (Homo sapiens) (P29376 whole entry): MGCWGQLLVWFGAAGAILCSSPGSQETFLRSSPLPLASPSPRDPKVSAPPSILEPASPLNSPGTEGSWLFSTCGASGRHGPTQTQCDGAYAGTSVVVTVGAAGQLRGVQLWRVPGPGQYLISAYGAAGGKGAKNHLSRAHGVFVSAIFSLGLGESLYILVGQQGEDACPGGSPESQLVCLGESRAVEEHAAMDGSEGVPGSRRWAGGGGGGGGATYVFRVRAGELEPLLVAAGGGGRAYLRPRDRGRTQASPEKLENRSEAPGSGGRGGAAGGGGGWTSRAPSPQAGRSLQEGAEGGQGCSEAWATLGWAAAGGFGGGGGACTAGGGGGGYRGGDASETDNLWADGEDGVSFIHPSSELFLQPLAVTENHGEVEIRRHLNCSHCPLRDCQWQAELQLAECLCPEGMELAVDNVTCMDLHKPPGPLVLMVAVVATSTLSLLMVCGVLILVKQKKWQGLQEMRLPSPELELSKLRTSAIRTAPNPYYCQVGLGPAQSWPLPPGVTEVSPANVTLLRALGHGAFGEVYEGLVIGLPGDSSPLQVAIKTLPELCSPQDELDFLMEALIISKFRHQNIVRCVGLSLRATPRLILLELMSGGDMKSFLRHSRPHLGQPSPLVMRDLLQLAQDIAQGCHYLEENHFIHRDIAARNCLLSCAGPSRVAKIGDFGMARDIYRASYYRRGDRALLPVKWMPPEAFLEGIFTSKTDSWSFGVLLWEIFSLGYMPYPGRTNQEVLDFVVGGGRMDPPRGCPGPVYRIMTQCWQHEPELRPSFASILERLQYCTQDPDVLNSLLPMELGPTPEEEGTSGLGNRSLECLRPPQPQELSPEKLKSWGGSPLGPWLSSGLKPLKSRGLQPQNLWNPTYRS
Sequence of Tyrosine-protein kinase ITK/TSK (Homo sapiens) (Q08881 whole entry): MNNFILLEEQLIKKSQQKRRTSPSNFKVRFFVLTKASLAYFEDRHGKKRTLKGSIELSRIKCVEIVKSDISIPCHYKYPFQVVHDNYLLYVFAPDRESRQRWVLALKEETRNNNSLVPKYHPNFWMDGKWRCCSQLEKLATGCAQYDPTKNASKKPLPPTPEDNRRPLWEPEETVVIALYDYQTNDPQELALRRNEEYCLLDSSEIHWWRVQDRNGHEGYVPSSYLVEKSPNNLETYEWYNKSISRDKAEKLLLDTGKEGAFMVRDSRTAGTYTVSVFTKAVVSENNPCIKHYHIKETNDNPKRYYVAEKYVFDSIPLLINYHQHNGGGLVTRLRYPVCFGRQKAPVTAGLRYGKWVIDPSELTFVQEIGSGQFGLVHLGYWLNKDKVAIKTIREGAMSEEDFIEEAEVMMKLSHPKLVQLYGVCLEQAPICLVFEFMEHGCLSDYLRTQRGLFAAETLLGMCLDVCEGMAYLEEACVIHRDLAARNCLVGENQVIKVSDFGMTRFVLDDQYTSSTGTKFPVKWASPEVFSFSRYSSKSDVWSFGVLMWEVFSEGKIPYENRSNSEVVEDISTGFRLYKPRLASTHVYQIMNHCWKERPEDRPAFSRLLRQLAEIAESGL
Sequence of Macrophage-stimulating protein receptor (Homo sapiens) (Q04912 25-304 limits assumed): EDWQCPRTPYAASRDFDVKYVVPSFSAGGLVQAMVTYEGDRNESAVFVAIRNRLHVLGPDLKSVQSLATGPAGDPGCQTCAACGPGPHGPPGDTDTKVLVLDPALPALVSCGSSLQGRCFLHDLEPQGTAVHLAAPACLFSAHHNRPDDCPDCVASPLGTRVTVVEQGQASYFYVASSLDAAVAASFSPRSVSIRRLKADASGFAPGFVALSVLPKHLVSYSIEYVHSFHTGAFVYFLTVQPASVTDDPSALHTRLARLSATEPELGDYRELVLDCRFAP
Sequence of Macrophage-stimulating protein receptor (Homo sapiens) (Q04912 310-1400 limits assumed): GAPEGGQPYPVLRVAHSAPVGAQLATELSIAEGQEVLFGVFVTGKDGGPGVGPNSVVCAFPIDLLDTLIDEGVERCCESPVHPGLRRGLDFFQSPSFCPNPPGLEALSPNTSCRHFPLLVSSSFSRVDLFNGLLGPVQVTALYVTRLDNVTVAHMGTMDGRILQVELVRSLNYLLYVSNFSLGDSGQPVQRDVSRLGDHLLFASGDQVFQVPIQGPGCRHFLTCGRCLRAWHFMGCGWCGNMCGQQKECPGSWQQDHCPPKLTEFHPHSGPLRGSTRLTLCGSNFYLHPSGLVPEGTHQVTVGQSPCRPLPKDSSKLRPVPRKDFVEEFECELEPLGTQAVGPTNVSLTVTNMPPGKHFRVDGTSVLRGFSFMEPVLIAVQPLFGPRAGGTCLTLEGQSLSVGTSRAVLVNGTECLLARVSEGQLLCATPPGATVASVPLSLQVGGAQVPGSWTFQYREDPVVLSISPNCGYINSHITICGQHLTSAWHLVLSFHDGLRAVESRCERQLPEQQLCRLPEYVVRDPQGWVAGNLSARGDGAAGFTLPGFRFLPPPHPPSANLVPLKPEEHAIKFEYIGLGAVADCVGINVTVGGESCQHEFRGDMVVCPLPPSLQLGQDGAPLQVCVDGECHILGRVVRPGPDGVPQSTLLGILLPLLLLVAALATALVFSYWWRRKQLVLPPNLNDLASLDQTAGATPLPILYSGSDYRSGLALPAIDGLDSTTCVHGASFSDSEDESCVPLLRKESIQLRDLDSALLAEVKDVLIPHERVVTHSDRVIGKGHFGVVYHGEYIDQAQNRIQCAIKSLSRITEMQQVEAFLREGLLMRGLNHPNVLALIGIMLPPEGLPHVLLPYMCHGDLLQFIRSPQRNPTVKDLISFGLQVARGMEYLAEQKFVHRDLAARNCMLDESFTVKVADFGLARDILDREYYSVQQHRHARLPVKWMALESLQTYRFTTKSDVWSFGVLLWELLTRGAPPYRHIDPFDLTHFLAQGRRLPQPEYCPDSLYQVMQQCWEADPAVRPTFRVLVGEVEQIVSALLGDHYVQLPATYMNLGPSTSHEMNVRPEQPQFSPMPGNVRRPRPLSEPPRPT
Sequence of Serine/threonine-protein kinase 10 (Homo sapiens) (O94804 whole entry, looked up): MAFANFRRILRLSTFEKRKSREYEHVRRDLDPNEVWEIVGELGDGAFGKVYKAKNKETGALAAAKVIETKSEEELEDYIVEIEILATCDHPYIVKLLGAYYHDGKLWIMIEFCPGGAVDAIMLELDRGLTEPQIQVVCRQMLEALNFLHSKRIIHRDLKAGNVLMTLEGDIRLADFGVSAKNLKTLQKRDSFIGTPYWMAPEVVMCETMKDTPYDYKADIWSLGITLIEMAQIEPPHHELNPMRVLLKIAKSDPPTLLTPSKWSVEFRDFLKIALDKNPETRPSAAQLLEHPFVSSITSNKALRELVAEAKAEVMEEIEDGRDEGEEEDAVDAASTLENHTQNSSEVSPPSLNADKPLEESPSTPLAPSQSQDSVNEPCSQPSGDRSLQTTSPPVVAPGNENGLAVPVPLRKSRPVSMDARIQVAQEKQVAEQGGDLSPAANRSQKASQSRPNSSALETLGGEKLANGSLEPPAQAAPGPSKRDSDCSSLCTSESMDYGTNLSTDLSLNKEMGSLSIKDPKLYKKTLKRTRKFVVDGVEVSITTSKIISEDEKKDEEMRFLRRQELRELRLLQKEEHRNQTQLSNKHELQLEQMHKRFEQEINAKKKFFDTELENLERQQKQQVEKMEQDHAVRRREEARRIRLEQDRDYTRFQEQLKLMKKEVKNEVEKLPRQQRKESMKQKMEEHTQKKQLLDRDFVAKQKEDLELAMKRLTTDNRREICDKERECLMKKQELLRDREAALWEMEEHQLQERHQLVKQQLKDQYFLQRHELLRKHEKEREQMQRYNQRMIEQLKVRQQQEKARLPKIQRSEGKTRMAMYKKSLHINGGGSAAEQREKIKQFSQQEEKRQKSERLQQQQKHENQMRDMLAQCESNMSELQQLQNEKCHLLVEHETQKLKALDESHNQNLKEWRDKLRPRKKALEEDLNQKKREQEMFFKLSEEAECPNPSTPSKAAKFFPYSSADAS
Sequence of Serine/threonine-protein kinase pim-2 (Homo sapiens) (Q9P1W9 whole entry, looked up): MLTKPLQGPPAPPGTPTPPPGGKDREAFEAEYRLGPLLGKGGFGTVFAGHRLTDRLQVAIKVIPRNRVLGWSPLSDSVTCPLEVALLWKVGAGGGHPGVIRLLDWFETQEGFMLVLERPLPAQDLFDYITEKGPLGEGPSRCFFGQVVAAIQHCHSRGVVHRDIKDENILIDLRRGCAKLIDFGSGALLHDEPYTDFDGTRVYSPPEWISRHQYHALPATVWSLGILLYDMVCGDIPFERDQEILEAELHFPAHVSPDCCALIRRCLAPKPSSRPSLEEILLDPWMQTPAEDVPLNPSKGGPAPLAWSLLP

inhibition [1]: -6.7%
inhibition [2]: -1.7%
inhibition [3]: 0%
SMILES: Cc1n[nH]c(C)c1-c1ccc2c(NC(=O)c3ccc(N4CCN(C)CC4)cc3)n[nH]c2c1

inhibition [4]: 6.7%
inhibition [5]: 3.7%
inhibition [6]: -5%
inhibition [7]: 4%
inhibition [8]: 5.3%
inhibition [9]: 6%
SMILES: COC(=O)Nc1cc(-c2c(C3CC3)n[nH]c2C)cc2[nH]ncc12

inhibition [10]: 10.3%
inhibition [11]: 6%
inhibition [12]: 7%
inhibition [13]: 2%
inhibition [14]: -0.3%
inhibition [15]: -8.7%
inhibition [16]: -1.7%
inhibition [17]: -4%
SMILES: Cc1[nH]nc(C2CC2)c1-c1ccc2c(-c3ccc(N4CCN(C)CC4)nc3)n[nH]c2c1
